For 35 molecules, melting point results are on record in patent publication US7265120B2, “Pyrazine derivatives and pharmaceutical use thereof” (Astellas Pharma Inc., priority 2004, dated 2007).

In turn, `COCCNc1nc(-c2ccc(=O)n(C(C)C)n2)c(-c2ccccc2)nc1N` [Example 102, 6-{5-amino-6-[(2-methoxyethyl)amino]-3-phenyl-2-pyrazinyl}-2-isopropyl-3(2H)-pyridazinone] returned a melting point of 208 to 209.5 °C.
Take `CC(C)n1nc(-c2nc(NCCN3CCCCC3)c(N)nc2-c2ccccc2)ccc1=O` [Example 103, 6-(5-amino-3-phenyl-6-{[2-(1-piperidinyl)ethyl]amino}-2-pyrazinyl)-2-isopropyl-3(2H)-pyridazinone]: the melting point is 204.5 to 207 °C.
Under `CC(C)n1nc(-c2nc(NCCN3CCOCC3)c(N)nc2-c2ccccc2)ccc1=O` [Example 104, 6-(5-amino-6-{[2-(4-morpholinyl)ethyl]amino}-3-phenyl-2-pyrazinyl)-2-isopropyl-3(2H)-pyridazinone] stands 230 to 232.5 °C.
`CC(C)n1nc(-c2nc(NCC3CCCCC3)c(N)nc2-c2ccccc2)ccc1=O` [Example 105, 6-{5-amino-6-[(cyclohexylmethyl)amino]-3-phenyl-2-pyrazinyl}-2-isopropyl-3(2H)-pyridazinone] yielded a melting point of 219 to 221 °C.
Under `CC(C)n1nc(-c2nc(NCCc3ccccn3)c(N)nc2-c2ccccc2)ccc1=O` [Example 106, 6-(5-amino-3-phenyl-6-{[2-(2-pyridyl)ethyl]amino}-2-pyrazinyl)-2-isopropyl-3(2H)-pyridazinone] stands 204 to 206 °C; under `CC(C)n1nc(-c2nc(NC3CCN(Cc4ccccc4)CC3)c(N)nc2-c2ccccc2)ccc1=O` [Example 107, 6-{5-amino-6-[(1-benzyl-4-piperidinyl)amino]-3-phenyl-2-pyrazinyl}-2-isopropyl-3(2H)-pyridazinone], 214 to 216.5 °C.
Take `CC(C)n1nc(-c2nc(N3CCCCC3)c(N)nc2-c2ccccc2)ccc1=O` [Example 108, 6-[5-amino-3-phenyl-6-(1-piperidinyl)-2-pyrazinyl]-2-isopropyl-3(2H)-pyridazinone]: the melting point lay in the range of 183 to 185 °C.
Under `CC(C)n1nc(-c2nc(N3CCC(N(C)C)C3)c(N)nc2-c2ccccc2)ccc1=O` (centres unmarked) [Example 109, 6-{5-amino-6-[3-(dimethylamino)-1-pyrrolidinyl]-3-phenyl-2-pyrazinyl}-2-isopropyl-3(2H)-pyridazinone] stands 150 to 152 °C.
Turning to `COC1CCN(c2nc(-c3ccc(=O)n(C(C)C)n3)c(-c3ccccc3)nc2N)CC1` [Example 110, 6-[5-amino-6-(4-methoxy-1-piperidinyl)-3-phenyl-2-pyrazinyl]-2-isopropyl-3(2H)-pyridazinone], the melting point lay in the range of 179 to 181 °C.
As to `CC(C)n1nc(-c2nc(N3CCC(NS(C)(=O)=O)CC3)c(N)nc2-c2ccccc2)ccc1=O` [Example 111, N-{1-[3-amino-6-(1-isopropyl-6-oxo-1,6-dihydro-3-pyridazinyl)-5-phenyl-2-pyrazinyl]-4-piperidinyl}methanesulfonamide], the melting point fell in the range of 220 to 222 °C.
The molecule `CC(C)n1nc(-c2nc(N3CCNCC3)c(N)nc2-c2ccccc2)ccc1=O` [Example 112, 6-[5-amino-3-phenyl-6-(1-piperazinyl)-2-pyrazinyl]-2-isopropyl-3(2H)-pyridazinone] returned a melting point of 157 to 159 °C.
Under `CC(C)n1nc(-c2nc(N3CCN(C)CC3)c(N)nc2-c2ccccc2)ccc1=O` [Example 113, 6-[5-amino-6-(4-methyl-1-piperazinyl)-3-phenyl-2-pyrazinyl]-2-isopropyl-3(2H)-pyridazinone] stands 155 to 157 °C; under `CC(C)n1nc(-c2nc(N3CCN(Cc4ccccn4)CC3)c(N)nc2-c2ccccc2)ccc1=O` [Example 114, 6-{5-amino-3-phenyl-6-[4-(2-pyridylmethyl)-1-piperazinyl]-2-pyrazinyl}-2-isopropyl-3(2H)-pyridazinone], 88 to 91 °C.
The molecule `CC(C)n1nc(-c2nc(N3CCN(c4ccccc4)CC3)c(N)nc2-c2ccccc2)ccc1=O` [Example 115, 6-[5-amino-3-phenyl-6-(4-phenyl-1-piperazinyl)-2-pyrazinyl]-2-isopropyl-3(2H)-pyridazinone] had a melting point of 193 to 195 °C.
For `COc1ccc(N2CCN(c3nc(-c4ccc(=O)n(C(C)C)n4)c(-c4ccccc4)nc3N)CC2)cc1` [Example 116, 6-{5-amino-6-[4-(4-methoxyphenyl)-1-piperazinyl]-3-phenyl-2-pyrazinyl}-2-isopropyl-3(2H)-pyridazinone], the melting point fell in the range of 194 to 196 °C.
Under `CC(=O)N1CCN(c2nc(-c3ccc(=O)n(C(C)C)n3)c(-c3ccccc3)nc2N)CC1` [Example 117, 6-[6-(4-acetyl-1-piperazinyl)-5-amino-3-phenyl-2-pyrazinyl]-2-isopropyl-3(2H)-pyridazinone] stands 221 to 225 °C.
Under `CC(C)n1nc(-c2nc(N3CCN4CCCC4C3)c(N)nc2-c2ccccc2)ccc1=O` (centres unmarked) [Example 118, 6-[5-amino-6-(hexahydropyrrolo[1,2-a]pyrazin-2(1H)-yl)-3-phenyl-2-pyrazinyl]-2-isopropyl-3(2H)-pyridazinone] stands 205 to 207.5 °C; under `CC(C)n1nc(-c2nc(N3CC4CCC(C3)O4)c(N)nc2-c2ccccc2)ccc1=O` [Example 119, 6-[5-amino-6-(8-oxa-3-azabicyclo[3.2.1]oct-3-yl)-3-phenyl-2-pyrazinyl]-2-isopropyl-3(2H)-pyridazinone], 235 to 238 °C; under `COCCNc1nc(-c2ccc(=O)n(C)n2)c(-c2ccccc2)nc1N` [Example 120, 6-{5-amino-6-[(2-methoxyethyl)amino]-3-phenyl-2-pyrazinyl}-2-methyl-3(2H)-pyridazinone], 231 to 232.5 °C.
Under `Cn1nc(-c2nc(NCCN3CCCCC3)c(N)nc2-c2ccccc2)ccc1=O` [Example 121, 6-(5-amino-3-phenyl-6-{[2-(1-piperidinyl)ethyl]amino}-2-pyrazinyl)-2-methyl-3(2H)-pyridazinone] stands 155 to 157 °C; under `Cn1nc(-c2nc(NCCN3CCOCC3)c(N)nc2-c2ccccc2)ccc1=O` [Example 122, 6-(5-amino-6-{[2-(4-morpholinyl)ethyl]amino}-3-phenyl-2-pyrazinyl)-2-methyl-3(2H)-pyridazinone], 226 to 229 °C.
Turning to `Cn1nc(-c2nc(NCCNc3ccccc3)c(N)nc2-c2ccccc2)ccc1=O` [Example 123, 6-{5-amino-6-[(2-anilinoethyl)amino]-3-phenyl-2-pyrazinyl}-2-methyl-3(2H)-pyridazinone], the melting point lay within 181 to 183 °C.
Under `Cn1nc(-c2nc(NCc3ccco3)c(N)nc2-c2ccccc2)ccc1=O` [Example 124, 6-{5-amino-6-[(2-furylmethyl)amino]-3-phenyl-2-pyrazinyl}-2-methyl-3(2H)-pyridazinone] stands 249 to 252 °C; under `Cn1nc(-c2nc(NCCc3ccccc3)c(N)nc2-c2ccccc2)ccc1=O` [Example 125, 6-{5-amino-3-phenyl-6-[(2-phenylethyl)amino]-2-pyrazinyl}-2-methyl-3(2H)-pyridazinone], 232 to 234 °C.
Under `Cn1nc(-c2nc(NCCCc3ccccc3)c(N)nc2-c2ccccc2)ccc1=O` [Example 126, 6-{5-amino-3-phenyl-6-[(3-phenylpropyl)amino]-2-pyrazinyl}-2-methyl-3(2H)-pyridazinone] stands 196 to 197.5 °C; under `Cn1nc(-c2nc(NCCc3ccccn3)c(N)nc2-c2ccccc2)ccc1=O` [Example 127, 6-(5-amino-3-phenyl-6-{[2-(2-pyridyl)ethyl]amino}-2-pyrazinyl)-2-methyl-3(2H)-pyridazinone], 224 to 227 °C; under `Cn1nc(-c2nc(NC3CCN(Cc4ccccc4)C3)c(N)nc2-c2ccccc2)ccc1=O` (centres unmarked) [Example 128, 6-{5-amino-6-[(1-benzyl-3-pyrrolidinyl)amino]-3-phenyl-2-pyrazinyl}-2-methyl-3(2H)-pyridazinone], 183 to 185 °C.
Under `Cn1nc(-c2nc(NC3CCN(Cc4ccccc4)CC3)c(N)nc2-c2ccccc2)ccc1=O` [Example 129, 6-{5-amino-6-[(1-benzyl-4-piperidinyl)amino]-3-phenyl-2-pyrazinyl}-2-methyl-3(2H)-pyridazinone] stands 191 to 194 °C; under `Cn1nc(-c2nc(N3CCN(c4ccccc4)CC3)c(N)nc2-c2ccccc2)ccc1=O` [Example 130, 6-[5-amino-3-phenyl-6-(4-phenyl-1-piperazinyl)-2-pyrazinyl]-2-methyl-3(2H)-pyridazinone], 155 to 157 °C; under `Cn1nc(-c2nc(N3CCN4CCCC4C3)c(N)nc2-c2ccccc2)ccc1=O` (centres unmarked) [Example 131, 6-[5-amino-6-(hexahydropyrrolo[1,2-a]pyrazin-2(1H)-yl)-3-phenyl-2-pyrazinyl]-2-methyl-3(2H)-pyridazinone], 177 to 179 °C.
`CC(C)n1nc(-c2nc(NCCN(C)C)c(N)nc2-c2ccccc2)ccc1=O` [Example 132, 6-(5-amino-6-{[2-(dimethylamino)ethyl]amino}-3-phenyl-2-pyrazinyl)-2-isopropyl-3(2H)-pyridazinone] gave a melting point of 188 to 189 °C.
Under `CC(=O)NCCNc1nc(-c2ccc(=O)n(C(C)C)n2)c(-c2ccccc2)nc1N` [Example 133, N-(2-{[3-amino-6-(1-isopropyl-6-oxo-1,6-dihydro-3-pyridazinyl)-5-phenyl-2-pyrazinyl]amino}ethyl)acetamide] stands 147 to 149 °C; under `CC(C)n1nc(-c2nc(NCCc3ccccc3)c(N)nc2-c2ccccc2)ccc1=O` [Example 135, 6-{5-amino-3-phenyl-6-[(2-phenylethyl)amino]-2-pyrazinyl}-2-isopropyl-3(2H)-pyridazinone], 204.5 to 207 °C; under `CC(C)n1nc(-c2nc(NCCCc3ccccc3)c(N)nc2-c2ccccc2)ccc1=O` [Example 136, 6-{5-amino-3-phenyl-6-[(3-phenylpropyl)amino]-2-pyrazinyl}-2-isopropyl-3(2H)-pyridazinone], 185.5 to 187 °C.
`CC(C)n1nc(-c2nc(NC3CCCCC3)c(N)nc2-c2ccccc2)ccc1=O` [Example 137, 6-[5-amino-6-(cyclohexylamino)-3-phenyl-2-pyrazinyl]-2-isopropyl-3(2H)-pyridazinone] returned a melting point of 227 to 228.5 °C.
